Results from publication PMC4122495, “Small Molecule Deubiquitinase Inhibitors Promote Macrophage Anti-Infective Capacity” (PLoS ONE, 2014).
Values after ≈ are worked out from the molar mass of the structure shown. “Also recorded” adds a separate entry of the source. Where two headings read alike, the source gives them in different places.

How the values were obtained:
L. monocytogenes [1] = assay: Bacterial growth curve in BHI broth culture; type: cell-based, Listeria monocytogenes 10403S; settings: 5 µM in BHI broth; for effect on Listeria growth in broth culture: absence of host cells, up to 8 h
Experimental: For bacterial growth curve in broth culture, an overnight culture of L. monocytogenes was back-diluted 1∶50 into BHI broth in the presence of 5 µM of compounds 1 to 4, 2.5 µM of compound 9 or equivalent volume of DMSO and incubated statically at 30°C for up to 8 h. At indicated time points (0, 2, 4, 6 and 8 h), a 50 µl-aliquot of bacteria was serially diluted and plated on LB agar to determine the number of CFU. To test the bactericidal properties of compound 9, an overnight culture of L. monocytogenes was back-diluted 1∶50 into BHI broth and allowed to grow at 37°C with shaking until an optical density at 600 nm (OD600) of ∼0.6–0.7 was obtained. Bacteria were then exposed to 1, 2.5 or 5 µM of compound 9 or equivalent volume of DMSO for 2 h at 4°C. After incubation, bacteria were serially diluted and plated on LB agar to determine CFU.

L. monocytogenes [2] = assay: L. monocytogenes intracellular growth assay in RAW264.7 macrophages; type: cell-based, Listeria monocytogenes 10403S; set-up: decrease in Listeria intracellular viability: concentration or dose not given beside the values; settings: for EC50: Listeria monocytogenes, RAW264.7 pre-treated with varying concentrations, then infected (MOI 1), intracellular CFU at 8 h post-infection, non-linear regression; for decrease in Listeria intracellular viability: RAW264.7 pre-treated at each compound's working condition (Fig. 2B, 5B); for decrease in Listeria intracellular viability / effect on L.m. intracellular growth (in words) / Decrease intracellular listeria viability (%): 8 h post-infection; for decrease in Listeria intracellular viability / Decrease intracellular listeria viability (%): vs DMSO; for effect on L.m. intracellular growth (in words): RAW264.7 pre-treated with compound; for Decrease intracellular listeria viability (%): conditions of Figure 2B and Figure 5B, maximal effective drug concentration used
Experimental: RAW264.7 cells were cultured at an initial density of 4×10^6 cells per 24-well plate and allowed to adhere overnight. Macrophages were treated with 2.5 or 5 µM of DUB inhibitors dissolved in dimethyl sulfoxide (DMSO) for 0.5 or 1 h or with equivalent volume of DMSO (vehicle control) at 37°C. For dose-response curves, macrophages were incubated with 5, 2.5, 1 and 0.5 µM of compounds 1, 3 and 4 or 2.5, 2, 1 and 0.5 µM of compounds 2 and 9 for 0.5 h or 1 h at 37°C. DUB inhibitors were removed from cell culture prior to infection by changing the medium. Macrophages were infected with L. monocytogenes at a multiplicity of infection (MOI) of 1 for 0.5 h at 37°C. The inoculum was removed by washing infected cells three times with Dulbecco’s phosphate-buffered saline (PBS), and the cells were incubated in medium containing 10 µg/ml of gentamicin to kill extracellular bacteria for the duration of the experiment. At 8 h post-infection, cells were lysed in 1 ml 0.1% Triton X-100, serially diluted and plated on Luria-Bertani (LB) agar to enumerate the number of colony forming units (CFU). CFU were counted using the Acolyte SuperCount (Microbiology International, Frederick, MD) plate reader and software. Results were normalized to DMSO-treated cells.
Supplementary file pone.0104096.s001.tif: Figure S1 Dose-response curves for selected compounds. RAW264.7 cells were incubated with DMSO (equivalent volume) or the varying concentrations of WP1130-derivatives for 0.5 h (compounds 1, 2, 4 and 9) or 1 h (compound 3). After incubation, the medium was removed, and cells were infected at 37°C for 0.5 h at an MOI of 1 with L. monocytogenes in the absence of additional drugs. Following the 0.5 h infection, cells were washed and gentamycin (10 µg/ml) was added to kill extracellular bacteria. Intracellular bacteria were enumerated at 8 h post-infection. The data represent percent of Listeria intracellular growth compared to DMSO-treated cells from three independent experiments performed in triplicate. Non-linear regression curves were performed using the GraphPad Prism software. (TIF) Click here for additional data file.

RAW264.7 cells = assay: WST-1 cell viability assay, conditions mimicking the bacterial infection protocol; type: cell-based, murine; settings: then 8 h
Experimental: For cell viability assays in conditions that mimicked the bacterial infection protocol, RAW264.7 cells were cultured at an initial density of 4×10^6 cells per 96-well plate. Cells were treated with 2.5 or 5 µM DUB inhibitors dissolved in DMSO for 0.5 h or 1 h or with equivalent volume of DMSO. DUB inhibitors were removed after treatment by washing three times with PBS, and cells were incubated in culture media for 6.5 h at 37°C. The WST-1 reagent (Roche, San Francisco, CA), which measures mitochondrial dehydrogenase activity, was diluted 1 in 10 in media and cells were incubated at 37°C for an additional 1.5 h. The optical density at 440 nm (OD440) and 600 nm (OD600) was determined and results were normalized to DMSO-treated cells.

MNV-1 = test system: MNV-1; set-up: method as in PMID 22792064; settings: pre-treatment of RAW264.7 cells; cited from earlier work
[3] = Aqueous kinetic solubility; type: physicochemical; settings: aqueous (not further specified)
L. monocytogenes [4] = test system: L. monocytogenes; set-up: method as in PMID 21911458; settings: absence of host cells; cited from earlier work
USP9x = test system: USP9x; set-up: method as in Donato, N. J., manuscript in preparation; settings: cell-based assay; ref Donato, N. J., manuscript in preparation; read-out: IC50 against USP9x; cited from earlier work

| SMILES | effect on Listeria growth in broth culture (L. monocytogenes [1]) | EC50 (L. monocytogenes [2]) | decrease in Listeria intracellular viability (L. monocytogenes [2]) | effect on L.m. intracellular growth (in words) (L. monocytogenes [2]) | Decrease intracellular listeria viability (%) (L. monocytogenes [2]) | cellular toxicity (WST-1 viability) (RAW264.7 cells; 5 µM, 1 h pre-treatment) | further results |
| --- | --- | --- | --- | --- | --- | --- | --- |
| CCC[C@H](NC(=O)/C(C#N)=C/c1cccc(Cl)n1)c1ccccc1 [Compound 1] | slight decrease in growth rate | 1.1 µM | 54.7% | Decrease L.m. intracellular growth | 54.7% |  | effect on total CFU per ml by 8 h in broth culture (L. monocytogenes [1]): without affecting the total number of colony forming unit (CFU) per ml by 8 h |
| CCC[C@@H](NC(=O)/C(C#N)=C/c1cccc(Br)n1)c1ccccc1 [Compound 2] | slight decrease in growth rate | 1.76 µM | 44% | Decrease L.m. intracellular growth | 44.0% |  | effect on total CFU per ml by 8 h in broth culture (L. monocytogenes [1]): without affecting the total number of colony forming unit (CFU) per ml by 8 h; cellular toxicity (WST-1 viability) (RAW264.7 cells; pre-treatment 0.5 or 1 h, led to working concentration of 2.5 µM for 0.5 h): slight increase in toxicity |
| CCCC(NC(=O)/C(C#N)=C/c1cccc(Br)n1)c1ccc(OCOC)cc1 (centres unmarked) [Compound 3] | slight decrease in the in vitro growth |  | 39.9% | Decrease L.m. intracellular growth | 39.9% | no significant toxicity |  |
| CCC[C@H](NC(=O)/C(C#N)=C/c1cccc(F)n1)c1ccccc1 [Compound 4] | no effect | 2.88 µM | 29.2% | Decrease L.m. intracellular growth | 29.2% |  |  |
| CCC(NC(=O)/C(C#N)=C/c1cccc(Br)n1)c1ccc(O)cc1 (centres unmarked) [Compound 5] |  |  | 25.4% | Decrease L.m. intracellular growth |  | no significant toxicity |  |
| CCCC(NC(=O)/C(C#N)=C/c1cccc(F)n1)c1ccc(OCCN2CCOCC2)cc1 (centres unmarked) [Compound 6] |  |  |  | No effect on L.m. intracellular growth |  | no significant toxicity | effect on L.m. intracellular growth (in words) (L. monocytogenes [2]; listed as compound 6): no significant effect on Listeria intracellular growth; also recorded: complete loss of activity |
| CCCC(NC(=O)/C(C#N)=C/c1cccnc1F)c1ccc(OCCN2CCOCC2)cc1 (centres unmarked) [Compound 7] |  |  |  | No effect on L.m. intracellular growth |  | no significant toxicity | effect on L.m. intracellular growth (in words) (L. monocytogenes [2]; listed as compound 7): no significant effect on Listeria intracellular growth; also recorded: complete loss of activity |
| CCC[C@H](NC(=O)/C=C/c1cccc(Br)n1)c1ccccc1 [Compound 8] |  |  |  | No effect on L.m. intracellular growth |  | no significant toxicity | effect on L.m. intracellular growth (in words) (L. monocytogenes [2]; listed as compound 8): no significant effect on Listeria intracellular growth; also recorded: no activity |
| CCC[C@H](NC(=O)/C(C#N)=C/c1cccc(Br)n1)c1ccccc1 [WP1130, reference compound] |  |  | 69.9% | Decrease L.m. intracellular growth |  |  | average decrease in MNV-1 titers compared to DMSO vehicle control (MNV-1): 2.0 log; solubility kinetic [3]: 3.2 µM (≈ 1.23 µg/mL); effect on Listeria growth in broth culture (L. monocytogenes [4]): no effect; IC50 (USP9x): 6.6 µM |
